The target in one experiment is T1, NK-3 receptor (Cavia porcellus, UniProt P30098).
T1 construct: evaluated in freshly collected guinea pig cerebral cortex; from tissue; host or cells: guinea pig cerebral cortex
T1 sequence (P30098 1-440): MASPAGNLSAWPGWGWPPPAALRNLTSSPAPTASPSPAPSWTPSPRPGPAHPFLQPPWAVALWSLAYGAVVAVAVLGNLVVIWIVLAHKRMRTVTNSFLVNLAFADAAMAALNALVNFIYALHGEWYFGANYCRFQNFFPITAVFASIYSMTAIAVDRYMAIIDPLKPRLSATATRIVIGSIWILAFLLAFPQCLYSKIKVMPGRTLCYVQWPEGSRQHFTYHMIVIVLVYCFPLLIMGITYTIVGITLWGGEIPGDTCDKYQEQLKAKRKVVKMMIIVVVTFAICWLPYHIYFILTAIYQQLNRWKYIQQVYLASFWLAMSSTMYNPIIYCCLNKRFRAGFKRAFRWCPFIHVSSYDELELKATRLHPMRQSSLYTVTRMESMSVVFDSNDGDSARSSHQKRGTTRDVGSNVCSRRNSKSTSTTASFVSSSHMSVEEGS
Put plainly: Antagonism of iodinated eledoisin binding to NK3 receptor, guinea pig cerebral cortex. On the procedure: ANTAGONISM OF IODINATED TACHYKININ BINDING TO NK1 AND NK2
RECEPTORS BY PUTATIVE ANTAGONISTS
The NK1 receptor affinity of proposed tachykinin antagonists was evaluated in guinea pig lungs (Keystone Biologicals, Cleveland, OH), affinity for the NK2 receptor evaluated in HSKR-1 cells (which are mouse 3T3 fibroblasts expressing the human jejunal NK2 receptor) and NK-3 receptor affinity was evaluated in freshly collected guinea pig cerebral cortex. Tissues or cells were homogenized with a Polytron in 15 volumes of 50 mM Tris-HCl buffer (pH 7.4, 4° C.) and centrifuged. The pellet was resuspended in Tris-HCl buffer and was centrifuged; the pellet was washed twice by resuspension. The final pellet was resuspended at a concentration of 40 mg/ml for tissues (guinea pig lung and cerebral cortex) and 20 mg/ml for cells in incubation buffer and remained at room temperature for at least 15 min prior to use. Receptor binding was initiated by addition of 250 ul membrane preparation in duplicate to 0.1 nM of the following radioligands: ^125 I-Bolton Hunter Lys-3 labeled substance P; ^125 iodohistidyl-1-neurokinin A; and ^125 I-Bolton Hunter labeled Lys-4 eledoisin in a final volume of 500 ul of buffer containing 50 mM Tris-HCl (pH 7.4 at room temperature), 0.1% bovine serum albumin, 2 mM MnCl2, 40 ug/ml bacitracin, 4 μg/ml leupeptin and chymostatin, 1 μM thiorphan and various doses of the putative tachykinin antagonists. Incubations were performed at room temperature for 90 min (NK1 receptor assays) or 2 hr (NK2 and NK3 receptor assays); binding was terminated by addition of 50 mM Tris-HCl buffer (pH 7.4, 4° C.) and filtration under vacuum through GF/B filters presoaked with 0.1% polyethyleneimine (NK1 receptor assays) or 0.5% bovine serum albumin (NK2 and NK3 receptor assays). Filter bound radioactivity was quantitated in a gamma counter. […] Specific binding was calculated by subtracting nonspecific binding from total binding. Competition of iodinated SP, NKA, or eledoisin binding by test compounds or standards was expressed as a percentage of this maximum competition. […]

Another experiment addresses T2, NK1 receptor (Cavia porcellus, UniProt P30547).
T2 construct: evaluated in guinea pig lungs; tissue Keystone Biologicals, Cleveland, OH; host or cells: guinea pig lung
The experiment in a line: Antagonism of SP-induced plasma protein extravasation in guinea pig trachea. In kind it is in vivo. Here is the method: SP-induced protein leakage through postcapillary venules was assessed by measuring Evans Blue dye accumulation in guinea pig trachea. Animals were anesthetized with pentobarbital then injected with Evans Blue dye (20 mg/kg, i.v., prepared in 0.9% NaCl solution). One minute after dye administration, the antagonist was administered (i.v.) followed by SP (0.3 nmole/kg, i.v.) and, after 5 min, excess dye removed from the circulation by transcardiac perfusion with 50 ml 0.9% NaCl solution. The trachea and primary bronchi were removed, blotted dry and weighed. Dye quantitation was performed spectrophotometrically ([…]) after extracting tissues in formamide for 24 hr at 50° C.. Values were subtracted from background (dye only, no agonist). ED50 (dose of compound which inhibits SP-induced plasma protein extravasation by 50%) was calculated from linear regression analysis.

Molecules are shown by their SMILES.

T2 sequence (P30547 whole entry): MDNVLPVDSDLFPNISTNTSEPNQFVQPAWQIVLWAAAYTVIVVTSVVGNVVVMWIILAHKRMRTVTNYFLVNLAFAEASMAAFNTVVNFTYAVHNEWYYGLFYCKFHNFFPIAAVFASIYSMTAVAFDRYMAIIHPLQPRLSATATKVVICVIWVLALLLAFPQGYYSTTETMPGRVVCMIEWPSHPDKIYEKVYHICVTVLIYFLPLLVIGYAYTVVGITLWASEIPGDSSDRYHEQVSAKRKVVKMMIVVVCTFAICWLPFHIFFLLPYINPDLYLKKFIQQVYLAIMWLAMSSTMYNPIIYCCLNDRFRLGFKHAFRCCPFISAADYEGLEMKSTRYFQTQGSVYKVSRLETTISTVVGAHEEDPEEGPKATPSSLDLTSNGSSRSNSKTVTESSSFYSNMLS

With `COc1cc(C(=O)N2CCC(CCN3CCC(C(N)=O)(c4ccccc4)CC3)(c3ccc(Cl)c(Cl)c3)C2)cc(OC)c1OC` (stereo not drawn) [Example 3, 1-[2-[3-(3,4-dichloro-phenyl)-1-(3,4,5-trimethoxy-benzoyl)-pyrrolidin-3-yl]-ethyl]-4-phenyl-piperidine-4-carboxylic acid amide], the “affinity for NK3 receptors (in words)” value on NK-3 receptor (guinea pig cerebral cortex) is “high affinity”. Also, the “relative potency against SP-induced plasma protein extravasation (in words)” value on NK1 receptor (i.v.) is “equipotent NK-1 receptor antagonists”. In addition, the “antagonism of SP-induced plasma protein extravasation (in words)” value on NK1 receptor (i.v., FIG. 2) was “dose related antagonism of SP-induced plasma protein extravasation in guinea pig trachea”.

One may read the ED50 as the dose that gives a 50% effect, or the effect in half of the subjects. As to `COc1cc(C(=O)N2CCC(CCN3CCC(C(N)=O)(c4ccccc4)CC3)(c3ccc(Cl)c(Cl)c3)C2)cc(OC)c1OC.Cl` (single isomer, unassigned; (+)) [Example 20A, (+)-1-[2-[3-(3,4-dichloro-phenyl)-1-(3,4,5-trimethoxy-benzoyl)-pyrrolidin-3-yl]-ethyl]-4-phenyl-piperidine-4-carboxylic acid amide hydrochloride], the 50% effective dose (ED50) at NK1 receptor (guinea pig, iv, i.v. 2 min prior to SP, mean (95% confidence limits), at least 3 doses, at least 4 animals per dose, read-out: ED50 for inhibition of SP-induced plasma protein extravasation) worked out at 0.2 mg/kg. Further, the “relative potency against SP-induced plasma protein extravasation (in words)” value at NK1 receptor (i.v.) is recorded as “equipotent NK-1 receptor antagonists”.

A word on the IC50: it is the concentration that gives 50% inhibition. The compound `COc1cc(C(=O)N2CCC(CCN3CCC(C(N)=O)(c4ccccc4)CC3)(c3ccc(Cl)c(Cl)c3)C2)cc(OC)c1OC` (single isomer, unassigned; (+)) [Example 20, (+)-1-[2-[3-(3,4-dichloro-phenyl)-1-(3,4,5-trimethoxy-benzoyl)-pyrrolidin-3-yl]-ethyl]-4-phenylpiperidine-4-carboxylic acid amide] gave a half-inhibitory concentration (IC50) on NK-3 receptor (NK-3 IC50, guinea pig cerebral cortex, 125I-eledoisin, mean of several experiments) of 21 nM.

The record behind these values is patent US5635510A, “Substituted pyrrolidin-3-yl-alkyl-piperidines” (Merrell Pharmaceuticals Inc., priority 1994, dated 1997).
